Source: patent US20230152324A1, “TUMOR-INTRINSIC NLRP3 INFLAMMASOME SIGNALING PATHWAY AS A GENETIC AND FUNCTIONAL BIOMARKER FOR IMMUNOTHERAPY RESPONSE” (Duke University, priority 2021, published 2023)

B1: Wnt5a: recombinant Wnt5a (R&D Systems/Bio-techne, 645-WN-010) used to treat cell lines (protein, UniProt P22725 62-380, looked up)
Protein Wnt-5a: IIGAQPLCSQLAGLSQGQKKLCHLYQDHMQYIGEGAKTGIKECQYQFRHRRWNCSTVDNTSVFGRVMQIGSRETAFTYAVSAAGVVNAMSRACREGELSTCGCSRAARPKDLPRDWLWGGCGDNIDYGYRFAKEFVDARERERIHAKGSYESARILMNLHNNEAGRRTVYNLADVACKCHGVSGSCSLKTCWLQLADFRKVGDALKEKYDSAAAMRLNSRGKLVQVNSRFNSPTTQDLVYIDPSPDYCVRNESTGSLGTQGRLCNKTSEGMDGCELMCCGRGYDQFKTVQTERCHCKFHWCCYVKCKKCTEIVDQFVCK

How the values were obtained:
[1] = test system: autochthonous BRAF^V600EPTEN^−/− melanoma model; experiment: Autochthonous (transgenic) BRAFV600EPTEN−/− melanoma model treated with anti-PD-1 ± MCC950 or anti-HSP70 antibody; type: in vivo, mouse
From the text: Prior studies have described disease hyper-progression (HPD) occurring in response to anti-PD-1 immunotherapy, a phenomenon estimated by some authors to develop in ˜10% of all solid tumors (5). In HPD, tumor burden can dramatically increase in response to exposure to anti-PD-1 immunotherapy. Given our prior data describing a role for the tumor-intrinsic NLRP3-HSP70 signaling axis as an important driver of PMN-MDSC accumulation in distant lung tissues in response to anti-PD-1 immunotherapy, we hypothesized that this same tumor-intrinsic signaling pathway can establish an immunologic environment capable of facilitating HPD. […]
B6.Cg-Braf^tm1Mmcm Pten^tm1Hwu Tg(Tyr-cre/ERT2 H-2^b)13Bos/BosJ transgenic mice were subdermally injected with 4-Hydroxytamoxifen (4-HT) (Sigma, H6278-50MG CCF, 38.75 μg/mouse) to induce primary melanoma development at the base of the tail. […] Primary tumor volumes were monitored by orthogonal caliper measurements every 3 days. Tumor volume was calculated according to the formula: cm^3=[(length, cm)×(width, cm)^2]/2.
Small representative tissue specimens were harvested from tumors and lungs and stored in RNAlater at −80° C. […] Total RNA was isolated by RNeasy Plus Mini Kit (Qiagen, 74134) and RNA was quantified by NanoDrop. […] All data were normalized to Actb expression and relative gene expression was quantitated based on the 2ΔΔCt method. […]

[2] = test system: BRAF^V600EPTEN^−/− melanoma-bearing NLRP3^−/− mice; experiment: Anti-PD-1 alone or with MCC950 in BRAFV600EPTEN−/− melanoma-bearing NLRP3−/− mice; type: in vivo, mouse
non-tumor-bearing mice = experiment: Recombinant HSP70 i.p. delivery into non-tumor-bearing mice (lung Western blot, flow cytometry); type: in vivo, mouse; settings: rHSP70 i.p. vs normal saline
From the text: (§1) Indeed, while we were able to detect soluble HSP70 as a secretion product of human melanoma cell lines, we were not able to detect the production of active IL-1β (FIGS. 12B and C). […] We have previously shown that the tumor-intrinsic NLRP3 inflammasome drives PMN-MDSC recruitment via an autocrine signaling pathway dependent on soluble HSP70 (19). […] To determine whether HSP70 could play the role of a soluble mediator in the induction of CXCR2-dependent chemokines in the distant lung, we delivered recombinant HSP70 (rHSP70) into non-tumor-bearing mice by intra-peritoneal (i.p.) injection and measured CXCL5 expression by whole lung tissue Western blot analysis as well as PMN-MDSC accumulation in the lung by flow cytometry. […] Based on these cumulative findings, we hypothesized that tumor-derived HSP70 signals through TLR4 to promote PMN-MDSC trafficking to these distant tissues. […]
Cells (1-2×10^6) were diluted in 150 μl flow buffer per well of V bottom culture plates, incubated with Live/Dead Stain (Sigma) on ice for 20 mins, washed twice, and incubated with Fc Block (anti-CD16/CD32, 2 ug/mL) before staining with appropriate conjugated antibodies. Cells were washed, resuspended in 2% paraformaldehyde for 15 mins at 4° C., and analyzed using a BD FACSCanto flow cytometry system. […]

[3] = test system: MLE12 lung epithelial cells; experiment: MLE12 lung epithelial cell line Western blot after rHSP70 ± TLR4 inhibitor or recombinant Wnt5a; type: cell-based, murine; settings: for G-CSF expression: in vitro lung epithelial cells
[4] = test system: CD45^−EpCAM^+ lung epithelial cells of TLR4^f/f and SPC-TLR4^−/− mice; experiment: rHSP70 i.p. in TLR4f/f and SPC-TLR4−/− transgenic mice, qrt-PCR of sorted lung epithelial cells; type: in vivo, mouse; settings: rHSP70 i.p. vs saline
From the text: as §1
Small representative tissue specimens were harvested from tumors and lungs and stored in RNAlater at −80° C. […] Total RNA was isolated by RNeasy Plus Mini Kit (Qiagen, 74134) and RNA was quantified by NanoDrop. […]

Row | Molecule | metastatic progression to the lung ([1]; MCC950 with anti-PD-1, S100β IHC and TRP2 qrt-PCR) | PMN-MDSC populations in the lung ([1]; MCC950 with anti-PD-1 vs anti-PD-1) | anti-PD-1-induced accumulation of PMN-MDSCs into lung tissues ([2]; MCC950 in combination with anti-PD-1, lung tissue and BALF) | upregulation of Wnt5a expression in lung tissues ([2]; MCC950 with anti-PD-1, Western blot) | CXCL5 expression in whole lung tissue (non-tumor-bearing mice; Western blot) | PMN-MDSC accumulation in the lung (non-tumor-bearing mice; flow cytometry) | Wnt5a expression ([3]; MLE12 cells, rHSP70 ± TLR4 inhibitor) | G-CSF expression [3] | Wnt5a and Cxcl5 expression in lung epithelial cells [4]
1 | CC(C)(O)c1coc(S(=O)(=O)NC(=O)Nc2c3c(cc4c2CCC4)CCC3)c1 [MCC950] | inhibiting metastatic progression | suppress PMN-MDSC populations in the lung | largely eliminated | suppress the upregulation of Wnt5a expression in lung tissues |  |  |  |  | 
2 | rHSP70: recombinant HSP70 delivered by intra-peritoneal injection or added to cells |  |  |  |  | induce CXCL5 expression | promote the accumulation of PMN-MDSCs in lung tissues | induce Wnt5a expression in a TLR4-dependent manner | induce modest G-CSF upregulation | upregulated only in lung epithelial cells expressing TLR4
3 | B1 |  |  |  |  |  |  |  | more immediate driver of G-CSF | 
